The results in this text go back to patent US20060153782A1, “Skin photoageing and actinic damage treatment” (Novogen Research Pty Ltd, priority 2002, published 2006).

One assay deals with CPD+ve epidermal cells. Description: Cyclobutane pyrimidine dimers (CPD) in UV-irradiated human skin. Format: in vivo. As to conditions: human subject; equol treated skin post-UVR compared with vehicle-only treated skin. The source says: The formation of CPD's, which occurs immediately on UV exposure (Viv Reeve, pers comm) would be unaffected by any therapeutic agent applied post-UVR. However, the rate of repair of CPDs might be increased by equol. If this occurred, fewer CPDs in equol treated skin compared with the number in vehicle-only treated skin would be observed. [drawing 5] Equol (CAS No. 531-95-3)

Another assay has as its system skin thickness. The assay can be described thus: Skin thickness of hairless mice after chronic UV exposure. Format: in vivo. As to conditions: hairless mice treated either before or after chronic UV exposure, vs non-treated mice. An excerpt:
Increased skin thickness may be associated with wrinkles, capillary dilation in skin and skin dryness, as well as actinic damage.

`Oc1ccc(C2COc3cc(O)ccc3C2)cc1` (stereo not drawn) [equol, Equol]: in the assay on CPD+ve epidermal cells, the “percentage of CPD+ve epidermal cells” value is given as “lower percentage of CPD+ve epidermal cells”. Also, the skin thickness result with skin thickness was “decreased skin thickness”.
Consider `Oc1ccc(C2=Cc3ccc(O)cc3OC2)cc1` [dehydroequol], for which, in the assay on skin thickness, the skin thickness entry was “decreased skin thickness”.
